Measured values published in the NIST ThermoML archive (doi:10.1016/j.jct.2012.09.009).
± gives the expanded uncertainty stated by the source.

Conditions: 101.33 kPa, Liquid; for speed of sound: Sing-around technique in a fixed-path interferometer; for mass density: vibrating tube

Structure (SMILES) | speed of sound (278.15 K) | speed of sound (283.15 K) | speed of sound (288.15 K) | speed of sound (293.15 K) | speed of sound (298.15 K) | speed of sound (303.15 K) | speed of sound (308.15 K) | speed of sound (313.15 K) | speed of sound (318.15 K) | speed of sound (323.15 K) | speed of sound (328.15 K) | speed of sound (333.15 K) | speed of sound (338.15 K) | speed of sound (343.15 K) | other results
CC(C)CC(C)(C)C [2,2,4-trimethylpentane] | 1168.4 ± 2.1 m/s | 1146.8 ± 2.1 m/s | 1125.4 ± 2.1 m/s | 1104.3 ± 2.1 m/s | 1083.1 ± 2.1 m/s | 1062.4 ± 2.1 m/s | 1041.6 ± 2.1 m/s | 1020.9 ± 2.1 m/s | 1000.5 ± 2.1 m/s | 980 ± 2.1 m/s | 959.7 ± 2.1 m/s | 939.7 ± 2.1 m/s | 919.7 ± 2.1 m/s | 900 ± 2.1 m/s | mass density (278.15 K): 704.1 ± 0.45 kg/m3; mass density (283.15 K): 700.05 ± 0.45 kg/m3; mass density (288.15 K): 695.98 ± 0.44 kg/m3; mass density (293.15 K): 691.89 ± 0.44 kg/m3; mass density (298.15 K): 687.77 ± 0.43 kg/m3; mass density (303.15 K): 683.64 ± 0.43 kg/m3; mass density (308.15 K): 679.48 ± 0.42 kg/m3; mass density (313.15 K): 675.28 ± 0.42 kg/m3; mass density (318.15 K): 671.07 ± 0.41 kg/m3; mass density (323.15 K): 666.81 ± 0.41 kg/m3; mass density (328.15 K): 662.52 ± 0.41 kg/m3; mass density (333.15 K): 658.19 ± 0.4 kg/m3; mass density (338.15 K): 653.81 ± 0.4 kg/m3; mass density (343.15 K): 649.4 ± 0.39 kg/m3
Cc1ccccc1 [toluene] | 1394.1 ± 2.2 m/s | 1371.5 ± 2.2 m/s | 1349.1 ± 2.2 m/s | 1326.9 ± 2.2 m/s | 1305.1 ± 2.1 m/s | 1283.6 ± 2.2 m/s | 1262.2 ± 2.2 m/s | 1240.9 ± 2.2 m/s | 1219.9 ± 2.2 m/s | 1198.9 ± 2.2 m/s | 1178.2 ± 2.2 m/s | 1157.7 ± 2.2 m/s | 1137.2 ± 2.1 m/s | 1117 ± 2.2 m/s | –
